Consider 36 compounds from US20170121344A1 (Siga Technologies, Inc., priority 2009, published 2017).

The subject of the assay is Dengue-2 (Strain New Guinea C). The assay can be described thus: Viral yield assay against Dengue-2 in Vero cells. The format is cell-based, Dengue virus. Conditions: Dengue virus; for EC50: read-out: Activity (EC50 in μM) DENV-2; for pEC50: read-out: Activity (EC50 class) against Dengue-2 Virus in Vero cells. The method, then:
Compounds that were active in the primary screen were tested for activity in viral yield assays. […] Vero cells in 12-well plates were infected with dengue-2 virus at a multiplicity of infection (MOI) of 0.1, treated with compound (or DMSO as a control), incubated at 37° C., harvested 48 hours post infection and titered on Vero cells as described above. The EC50 was calculated through ExcelFit. Activities against other serotypes of dengue virus were determined in a similar way.

The mark [1] stands for this setting: DENV2, viral yield assay, Vero cells, MOI 0.1, 48 hours post infection.
[2] abbreviates: Vero cells, MOI 0.1, harvested 48 hours post infection.

pEC50: −log10 of the molar value. Read-outs that look alike come from different tables or passages of the source. Some results are limits rather than exact numbers.

The EC50 is the concentration at which the effect is half-maximal. What is called pEC50 is the EC50 on a negative log10 scale, so that one unit is a factor of ten.

For `Cc1cc(C)c2c(C)c(C(=O)NCc3ccco3)sc2n1` [Compound 389, N-(2-furylmethyl)-3,4,6-trimethyl-thieno [2,3-b]pyridine-2-carboxamide], the concentration giving a half-maximal response (EC50) under setting [1] was 5 to 25 µM. In the case of `Cc1cc(C)c2c(N)c(C(=O)NC34CC5CC(CC(C5)C3)C4)sc2n1` [Compound 122, 3-Amino-4,6-dimethyl-thieno[2,3-b]pyridine-2-carboxylic acid adamantan-1-ylamide], under setting [2], the pEC50 was less than 4.60. For the compound `Nc1c(C(=O)Nc2ccc(Cl)cc2Cl)sc2nc(-c3ccc4c(c3)OCO4)ccc12` [Compound 537, 3-amino-6-(1,3-benzodioxol-5-yl)-N-(2,4-dichlorophenyl)thieno[2,3-b]pyridine-2-carboxamide], under setting [1], the concentration giving a half-maximal response (EC50) was less than 5 µM. For `Nc1c(C(=O)Nc2ccccc2)sc2nc3c(cc12)CCC3` [Compound 173, 3-Amino-6,7-dihydro-5H-cyclopenta[b]thieno[3,2-e]pyridine-2-carboxylic acid phenylamide], the negative logarithm of the EC50 (pEC50) under setting [2] was less than 4.60. Still for that read-out and setting: as for `CCc1nnc(NC(=O)c2sc3nc4c(cc3c2N)CCCC4)s1` [Compound 92, 3-Amino-5,6,7,8-tetrahydro-thieno[2,3-b]quinoline-2-carboxylic acid (5-ethyl-[1,3,4]thiadiazol-2-yl)-amide], the figure is 4.60 to 5.30.

`Nc1c(C(=O)Nc2ccc(O)cc2)sc2nc(-c3ccc(Cl)cc3)ccc12` [Compound 356, 3-amino-6-(4-chlorophenyl)-N-(4-hydroxy-phenyl) thieno [2,3-b]pyridine-2-carboxamide]: under setting [1], the EC50 is 5 to 25 µM. Still for that read-out and setting: as for `Cc1cc(C)c2c(C)c(C(=O)N3CCN(c4cnccn4)CC3)sc2n1` [Compound 404], the figure is less than 5 µM; as for `Nc1c(C(=O)Nc2ccccc2OC(F)(F)F)sc2nc(-c3ccncc3)ccc12` [Compound 487, 3-amino-6-(4-pyridyl)-N-[2-(trifluoromethoxy)phenyl]thieno[2,3-b] pyridine-2-carboxamide], less than 5 µM. With `COc1ccc(C(F)(F)F)cc1NC(=O)c1sc2nc(-c3cccs3)ccc2c1N` [Compound 442, 3-amino-N-[2-methoxy-5-(trifluoromethyl)phenyl]-6-(2-thienyl) thieno[2,3-b]pyridine-2-carboxamide], the EC50 under setting [1] was less than 5 µM. The same measure, in the same setting: as for `N#Cc1c(N)nc2sc(C(=O)Nc3nc(-c4ccccc4)cs3)c(N)c2c1-c1ccco1` [Compound 383, 3,6-diamino-5-cyano-4-(2-furyl)-N-(4-phenylthiazol-2-yl)thieno[2,3-b]pyridine-2-carboxamide], the figure is less than 5 µM.

In the case of `COCc1cc(C)nc2sc(C(=O)Nc3cccc(Cl)c3)c(N)c12` [Compound 97, 3-Amino-4-methoxymethyl-6-methyl-thieno[2,3-b]pyridine-2-carboxylic acid (3-chloro-phenyl)-amide], the pEC50 under setting [2] is 4.60 to 5.30. The same measure, in the same setting: then `COC(=O)c1cc(OC)c(OC)cc1NC(=O)c1sc2nc3c(cc2c1N)CN(C)CC3` [Compound 263, 2-[(3-Amino-6-methyl-5,6,7,8-tetrahydro-thieno[2,3-b][1,6]naphthyridine-2-carbonyl)-amino]-4,5-dimethoxy-benzoic acid methyl ester], with less than 4.60. For `COc1cccc(-c2ccc3c(N)c(C(=O)Nc4cc(OC)c(OC)c(OC)c4)sc3n2)c1` [Compound 520, 3-amino-6-(3-methoxyphenyl)-N-(3,4,5-trimethoxyphenyl)thieno[2,3-b]pyridine-2-carboxamide], the EC50 under setting [1] was less than 5 µM. For the compound `CCN(CC)C(=O)c1sc2nc3c(cc2c1N)CCC3` [Compound 138, 3-Amino-6,7-dihydro-5H-cyclopenta[b]thieno[3,2-e]pyridine-2-carboxylic acid diethylamide], the pEC50 (Vero, 48 h) is less than 4.60. In the case of `Nc1c(C(=O)Nc2cc(F)ccc2F)sc2nc(-c3cc(Cl)ccc3Cl)ccc12` [Compound 629, 3-amino-6-(2,5-dichlorophenyl)-N-(2,5-difluorophenyl)thieno[2,3-b]pyridine-2-carboxamide], the EC50 under setting [1] is less than 5 µM. For `Nc1c(C(=O)Nc2nccs2)sc2nc3c(c(-c4ccccc4Cl)c12)CCCC3` [Compound 10, 3-Amino-4-(2-chloro-phenyl)-5,6,7,8-tetrahydro-thieno[2,3-b]quinoline-2-carboxylic acid thiazol-2-ylamide], the negative logarithm of the EC50 (pEC50) (Vero, 48 h) was more than 5.30. On to `Cc1nc(C)c(-c2ccc3c(N)c(C(=O)Nc4cccc(C(F)(F)F)c4)sc3n2)s1` [Compound 318, 3-amino-6-(2,4-dimethylthiazol-5-yl)-N-[3-(trifluoromethyl)phenyl]thieno[2,3-b]pyridine-2-carboxamide], for which the concentration giving a half-maximal response (EC50) under setting [1] is less than 5 µM. With `Nc1c(C(=O)Nc2nnc(-c3ccccc3)s2)sc2nc3c(cc12)CCCC3` [Compound 53, 3-Amino-5,6,7,8-tetrahydro-thieno[2,3-b]quinoline-2-carboxylic acid (5-phenyl-[1,3,4]thiadiazol-2-yl)-amide], the pEC50 under setting [2] is more than 5.30.

As to `Nc1c(C(=O)Nc2ccccc2F)sc2nc3c(cc12)CCCC3` [Compound 78, 3-Amino-5,6,7,8-tetrahydro-thieno[2,3-b]quinoline-2-carboxylic acid (2-fluoro-phenyl)-amide], under “Vero, 48 h”, the pEC50 was 4.60 to 5.30. Regarding `COc1ccc(-c2ccc3c(N)c(C(=O)NC(C)C)sc3n2)cc1` [Compound 101, 3-Amino-6-(4-methoxy-phenyl)-thieno[2,3-b]pyridine-2-carboxylic acid isopropylamide], the pEC50 under setting [2] was 4.60 to 5.30. With `COc1ccc(Cl)cc1NC(=O)c1sc2nc(-c3ccc4c(c3)OCO4)ccc2c1N` [Compound 594, 3-amio-6-(1,3-benzodioxol-5-yl)-N-(5-chloro-2-methoxy-phenyl)thieno[2,3-b] pyridine-2-carboxamide], the concentration for a half-maximal effect (EC50) under setting [1] is less than 5 µM. Take `Nc1c(C(=O)Nc2ccc([N+](=O)[O-])cc2)sc2nc3c(cc12)CCCC3` [Compound 228, 3-Amino-5,6,7,8-tetrahydro-thieno[2,3-b]quinoline-2-carboxylic acid (4-nitro-phenyl)-amide]: under setting [2], the pEC50 was less than 4.60.

Take `Nc1c(C(=O)Nc2ccccc2F)sc2nc3c(cc12)CCCCC3` [Compound 79, 3-Amino-6,7,8,9-tetrahydro-5H-1-thia-10-aza-cyclohepta[f]indene-2-carboxylic acid (2-fluoro-phenyl)-amide]: where the note is “Vero, 48 h”, the pEC50 was 4.60 to 5.30. In the case of `COc1ccc(-c2cc(-c3ccc(F)cc3)nc3sc(C(N)=O)c(N)c23)cc1OC` [Compound 54, 3-Amino-4-(3,4-dimethoxy-phenyl)-6-(4-fluoro-phenyl)-thieno[2,3-b]pyridine-2-carboxylic acid amide], under setting [2], the negative logarithm of the EC50 (pEC50) is more than 5.30.

In the case of `Cc1cc(NC(=O)c2sc3nc4c(c(-c5cccs5)c3c2N)CN(C)CC4)no1` [Compound 103, 3-Amino-6-methyl-4-thiophen-2-yl-5,6,7,8-tetrahydro-thieno[2,3-b][1,6]naphthyridine-2-carboxylic acid (5-methyl-isoxazol-3-yl)amide], the negative logarithm of the EC50 (pEC50) under setting [2] was 4.60 to 5.30. For the compound `N#Cc1c(N)nc2sc(C(=O)Nc3ccccc3)c(N)c2c1-c1ccco1` [Compound 375, 3,6-diamino-5-cyano-4-(2-furyl)-N-phenyl-thieno[2,3-b]pyridine-2-carboxamide], the EC50 under setting [1] lay within 5 to 25 µM. `Cc1c(C(=O)Nc2nccs2)sc2nc(-c3cccs3)cc(C(F)(F)F)c12` [Compound 386, 3-methyl-N-thiazol-2-yl-6-(2-thienyl)-4-(trifluoromethyl)thieno[2,3-b]pyridine-2-carboxamide]: the concentration giving a half-maximal response (EC50) (DENV2, Vero, 48 h) is less than 5 µM. For `Nc1c(C(=O)N2CCOCC2)sc2nc3c(cc12)CCCC3` [Compound 187, (3-Amino-5,6,7,8-tetrahydro-thieno[2,3-b]quinolin-2-yl)-morpholin-4-yl-methanone], where the note is “Vero, 48 h”, the pEC50 is less than 4.60. In the case of `COCc1cc(C)c2c(N)c(C(N)=O)sc2n1` [Compound 68, 3-Amino-6-methoxymethyl-4-methyl-thieno[2,3-b]pyridine-2-carboxylic acid amide], the pEC50 under setting [2] was 4.60 to 5.30. For the compound `Cc1cc(C(F)(F)F)c2c(N)c(C(=O)Nc3cccc(C(F)(F)F)c3)sc2n1` [Compound 149, 3-Amino-6-methyl-4-trifluoromethyl-thieno[2,3-b]pyridine-2-carboxylic acid (3-trifluoromethyl-phenyl)-amide], for the setting “Vero, 48 h”, the pEC50 is less than 4.60. `COc1ccc(NC(=O)c2sc3nc(-c4ccc(OC)c(OC)c4)ccc3c2N)c(C)c1` [Compound 500, 3-amino-6-(3,4-dimethoxyphenyl)-N-(4-methoxy-2-methyl-phenyl)thieno[2,3-b] pyridine-2-carboxamide]: under setting [1], the 50% effective concentration (EC50) was less than 5 µM. As to `COc1cc2c(cc1OC)CN(C(=O)c1sc3nc4c(cc3c1N)CN(C)CC4)CC2` [Compound 274, (3-Amino-6-methyl-5,6,7,8-tetrahydro-thieno[2,3-b][1,6]naphthyridin-2-yl)-(6,7-dimethoxy-3,4-dihydro-1H-isoquinolin-2-yl)-methanone], the pEC50 under setting [2] was less than 4.60. On the same count and under the same terms, then `Nc1c(C(=O)N2CCOCC2)sc2nc(-c3ccccc3)cc(C(F)(F)F)c12` [Compound 89, (3-Amino-6-phenyl-4-trifluoromethyl-thieno[2,3-b]pyridin-2-yl)-morpholin-4-yl-methanone], with 4.60 to 5.30.

Turning to `O=C(Nc1ccc(Cl)cc1)c1sc2ncccc2c1OCc1ccc(Cl)c(Cl)c1` [Compound 376, N-(4-chlorophenyl)-3-[(3,4-dichlorophenyl)methoxy]thieno[2,3-b] pyridine-2-carboxamide], the EC50 under setting [1] was 5 to 25 µM.

As to `COc1cccc(-c2ccc3c(N)c(C(=O)Nc4cc(OC)ccc4OC)sc3n2)c1` [Compound 496, 3-amino-N-(2,5-dimethoxyphenyl)-6-(3-methoxyphenyl)thieno[2,3-b]pyridine-2-carboxamide], the EC50 under setting [1] was less than 5 µM. For `CCOC(=O)N1CCC(NC(=O)c2sc3nc4c(cc3c2N)CN(CC)CC4)CC1` [Compound 275], the pEC50 under setting [2] was less than 4.60.
